From publication PMC3656107, “Polymorphisms in the F8 Gene and MHC-II Variants as Risk Factors for the Development of Inhibitory Anti-Factor VIII Antibodies during the Treatment of Hemophilia A: A Computational Assessment” (PLoS Computational Biology, 2013)

Columns and labels:
[1] = molecular target: T1, MHC-II DRB1*03:01 (Homo sapiens, UniProt P01903+P01911, A100K/A102G/A103R/A169T/F55Y/I96L/K41T/L162R/M171V/P40S/Q125H/Q178H/Q39Y/R42S/S66N/T106N/T262R/W38E/Y61H); experiment: Cell-free REVEAL class II binding assay; conditions: signal of test peptide as percentage of allele-specific positive control peptide, fluorescence, conformation-specific monoclonal antibody
Method in brief: (§1)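 Peptide binding to MHC-II alleles was detected by a fluorescent monoclonal antibody recognising natively folded peptide–MHC complexes. Scores are signal as a percentage of an allele-specific positive control T-cell epitope peptide. An intermediate-affinity control peptide was included in each run.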

[2] = molecular target: T2, MHC-II DRB1*04:01 (Homo sapiens, UniProt P01903+P01911, A100K/A169T/F76Y/I96L/K127E/L162R/M171V/N62H/P40V/Q125Y/R42H/S133A/S149N/S66Y/V115G/V209L/W38E); experiment: Cell-free REVEAL class II binding assay; conditions: signal of test peptide as percentage of allele-specific positive control peptide, fluorescence, conformation-specific monoclonal antibody
Method in brief: as §1

[3] = molecular target: T3, MHC-II DRB1*07:01 (Homo sapiens, UniProt P01903+P01911, A100R/A102G/A103Q/D57E/D86V/E43K/F76Y/K127E/L162R/M171V/P40G/Q125H/Q99D/R33Q/R42Y/R54Q/S133A/S66F/T210M/V115G/Y107V/Y59L/Y89S); experiment: Cell-free REVEAL class II binding assay; conditions: signal of test peptide as percentage of allele-specific positive control peptide, fluorescence, conformation-specific monoclonal antibody
Method in brief: as §1

[4] = molecular target: T4, MHC-II DRB1*11:01 (Homo sapiens, UniProt P01903+P01911, A100R/A169T/A87E/I96F/K41T/L162R/M171V/P40S/Q125H/Q178H/Q39Y/Q99D/R42S/S66Y/T262R/V115G/W38E); experiment: Cell-free REVEAL class II binding assay; conditions: signal of test peptide as percentage of allele-specific positive control peptide, fluorescence, conformation-specific monoclonal antibody
Method in brief: as §1

[5] = molecular target: T5, MHC-II DRB1*15:01 (Homo sapiens, UniProt P01903+P01911); experiment: Cell-free REVEAL class II binding assay; conditions: signal of test peptide as percentage of allele-specific positive control peptide, fluorescence, conformation-specific monoclonal antibody
T5 construct: purchased ProImmune
Method in brief: as §1

[6] = molecular target: T6, MHC-II DRB1*15:03 (Homo sapiens, UniProt P01903+P01911, Y59H); experiment: Cell-free REVEAL class II binding assay; conditions: signal of test peptide as percentage of allele-specific positive control peptide, fluorescence, conformation-specific monoclonal antibody
T6 construct: purchased ProImmune
Method in brief: as §1

[7] = molecular target: T1, MHC-II DRB1*03:01; experiment: Cell-free REVEAL class II stability assay; conditions: half-life of peptide-MHC-II complex (h, capped at 120) x Binding Score / 100, conformational ELISA
Method in brief: (§2)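 On-rates followed over 96 hr at 10°C and off-rates from dissociating complexes, each sampled at set time points and detected by conformational anti-HLA ELISA, then fitted to one-phase association or dissociation curves to give t1/2. Stability score = half-life × Binding Score / 100; allele-specific positive control peptides.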

[8] = molecular target: T2, MHC-II DRB1*04:01; experiment: Cell-free REVEAL class II stability assay; conditions: half-life of peptide-MHC-II complex (h, capped at 120) x Binding Score / 100, conformational ELISA
Method in brief: as §2

[9] = molecular target: T3, MHC-II DRB1*07:01; experiment: Cell-free REVEAL class II stability assay; conditions: half-life of peptide-MHC-II complex (h, capped at 120) x Binding Score / 100, conformational ELISA
Method in brief: as §2

[10] = molecular target: T4, MHC-II DRB1*11:01; experiment: Cell-free REVEAL class II stability assay; conditions: half-life of peptide-MHC-II complex (h, capped at 120) x Binding Score / 100, conformational ELISA
Method in brief: as §2

[11] = molecular target: T5, MHC-II DRB1*15:01; experiment: Cell-free REVEAL class II stability assay; conditions: half-life of peptide-MHC-II complex (h, capped at 120) x Binding Score / 100, conformational ELISA
Method in brief: as §2

[12] = molecular target: T6, MHC-II DRB1*15:03; experiment: Cell-free REVEAL class II stability assay; conditions: half-life of peptide-MHC-II complex (h, capped at 120) x Binding Score / 100, conformational ELISA
Method in brief: as §2

T6 sequence (P01903 26-254, other chains not shown): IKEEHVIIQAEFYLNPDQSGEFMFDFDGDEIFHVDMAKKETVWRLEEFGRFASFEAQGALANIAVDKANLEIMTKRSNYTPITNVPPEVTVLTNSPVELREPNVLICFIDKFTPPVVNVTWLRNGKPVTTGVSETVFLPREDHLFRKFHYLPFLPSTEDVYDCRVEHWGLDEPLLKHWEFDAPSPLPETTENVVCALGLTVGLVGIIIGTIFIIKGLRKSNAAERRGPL
T1 sequence (P01903 26-254 limits assumed, other chains not shown): as the sequence (P01903 26-254, other chains not shown) above
T4 sequence (P01903 26-254 limits assumed, other chains not shown): as the sequence (P01903 26-254, other chains not shown) above

Row | Sequence | Binding Score [1] | Binding Score [2] | Binding Score [3] | Binding Score [4] | Binding Score [5] | Binding Score [6] | Stability Index [7] | Stability Index [8] | Stability Index [9] | Stability Index [10] | Stability Index [11] | Stability Index [12]
1 | SYDGAYAPVLQDFRS [synthetic wild type FVIII 15 mer peptide, region of ns-SNP D1241E] | 1.7% | 0.4% | 0.0% | 0.1% | 0.0% | 0.0% | 0.1 | 0.0 | 0.0 | 0.0 | 0.0 | 0.0
2 | VVNSLDPPLLTRYLR [synthetic wild type FVIII 15 mer peptide] | 2.7% | 1.2% | 0.0% | 0.2% | 95.8% | 2.2% | 0.4 | 0.1 | 0.0 | 0.0 | 7.8 | 0.1
3 | SGYTFKHKMVYEDTL [synthetic wild type FVIII 15 mer peptide] | 1.3% | 1.0% | 0.0% | 14.9% | 1.0% | 0.0% | 0.0 | 0.1 | 0.0 | 2.2 | 1.2 | 0.0
4 | NNPKEWLQVDFQKTM [synthetic wild type FVIII 15 mer peptide, region of ns-SNP M2238V] | 12.6% | 1.7% | 0.6% | 3.5% | 0.1% | 0.1% | 0.0 | 0.1 | 0.1 | 0.1 | 0.2 | 0.1

Next, values leading:

Row | Binding Score [1] | Binding Score [2] | Binding Score [3] | Binding Score [4] | Binding Score [5] | Binding Score [6] | Stability Index [7] | Stability Index [8] | Stability Index [9] | Stability Index [10] | Stability Index [11] | Stability Index [12] | Sequence
5 | 57.6% | 29.7% | 0.0% | 11.7% | 3.0% | 0.0% | 21.0 | 8.3 | 0.0 | 0.0 | 0.2 | 0.0 | KMVYEDTLTLFPFSG [synthetic wild type FVIII 15 mer peptide]
6 | 6.0% | 8.3% | 0.0% | 23.3% | 1853.0% | 47.8% | 1.7 | 0.7 | 0.1 | 1.4 | 2223.6 | 57.3 | IIMYSLDGKKWQTYR [synthetic wild type FVIII 15 mer peptide]
7 | 0.0% | 1.5% | 0.0% | 2.8% | 0.0% | 0.0% | 0.0 | 0.2 | 0.0 | 0.0 | 0.0 | 0.0 | SYWKASEGAEYDDQT [synthetic wild type FVIII 15 mer peptide]
8 | 30.7% | 11.6% | 0.1% | 235.0% | 4.4% | 1.5% | 13.5 | 0.9 | 0.1 | 62.0 | 0.3 | 0.0 | LQVDFQKTMKVTGVT [synthetic wild type FVIII 15 mer peptide, region of ns-SNP M2238V]
